Measurements reported in patent US20240174675A1, “SMALL MOLECULE REGULATORS OF ALVEOLAR TYPE 2 CELL PROLIFERATION FOR THE TREATMENT OF PULMONARY DISEASES” (THE SCRIPPS RESEARCH INSTITUTE, priority 2021, published 2024).
Entries after “also recorded” stand apart in the source; their conditions may differ.

Key:
Human DPP4 = target: T1, Human DPP4 (Homo sapiens, UniProt P27487); assay: DPP4 activity assay (DPP4 Activity Assay Kit, fluorescent substrate); format: biochemical; details: Human DPP4; read-out: DPP4 inhibition IC50 [nM])
T1 construct: purchased Sigma-Aldrich MAK088
T1 sequence (P27487 whole entry): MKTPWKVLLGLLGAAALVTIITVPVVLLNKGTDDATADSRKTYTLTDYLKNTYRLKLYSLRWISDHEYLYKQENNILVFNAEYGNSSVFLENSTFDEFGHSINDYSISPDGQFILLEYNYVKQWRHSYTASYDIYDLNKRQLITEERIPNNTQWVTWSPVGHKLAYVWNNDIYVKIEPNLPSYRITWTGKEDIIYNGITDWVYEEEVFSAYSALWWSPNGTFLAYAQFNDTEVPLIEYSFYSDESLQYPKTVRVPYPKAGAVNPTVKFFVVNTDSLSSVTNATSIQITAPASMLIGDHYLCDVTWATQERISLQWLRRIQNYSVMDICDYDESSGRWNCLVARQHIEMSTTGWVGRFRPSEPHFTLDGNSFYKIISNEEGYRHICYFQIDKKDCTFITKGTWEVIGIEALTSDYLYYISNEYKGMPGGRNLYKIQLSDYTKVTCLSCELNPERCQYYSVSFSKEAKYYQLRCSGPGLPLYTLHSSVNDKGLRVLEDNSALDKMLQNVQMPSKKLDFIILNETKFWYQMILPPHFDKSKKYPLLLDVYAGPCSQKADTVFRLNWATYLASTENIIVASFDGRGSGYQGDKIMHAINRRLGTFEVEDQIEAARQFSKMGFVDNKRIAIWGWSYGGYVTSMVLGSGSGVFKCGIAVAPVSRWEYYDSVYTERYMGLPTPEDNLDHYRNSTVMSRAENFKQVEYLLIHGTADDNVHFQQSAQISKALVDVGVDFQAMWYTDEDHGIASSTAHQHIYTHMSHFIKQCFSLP
Method: DPP4 activity assay. Human DPP4 activity assay data were obtained using a DPP4 Activity Assay Kit (Sigma-Aldrich, MAK088) according to the manufacturer's instructions. Briefly, 10 μL of DPP4 Assay Buffer were transferred per well in low volume 384-well plates before transferring 10 μL of test compound dissolved in DPP4 assay buffer. To each well was added 5 μL of Master Reaction Mix containing a fluorescent substrate that becomes fluorescent upon cleavage by the enzyme. Fluorescence intensity measurements were recorded at 1-minute time intervals over the course of 20 minutes using an Envision Multimode Plate Reader (PerkinElmer).

[1] = Pharmacokinetic profiling, plasma and lung levels after intratracheal delivery in the rat; format: in vivo; details: Male, Sprague Dawley strain, 2 mg/kg, 1 mg/ml in PBS; for MRT inf: read-out: MRT0-inf
Method: To assess the time course of the plasma and lung exposure of compounds disclosed herein, rodents were dosed IT with an exemplary compound of the present disclosure. The plasma and lung samples were taken at different time points. The drug levels were measured by LCMS.

[2] = system: bleomycin induced lung fibrosis in mice; assay: Bleomycin induced lung fibrosis model; format: in vivo, C57BL/6J mice; details: for efficacy in combination with Nintedanib: Compound 46 0.5 mg/kg IT, E4D, Bliss independence, BALF protein content and Ashcroft scoring (FIG. 4)
Method: Bleomycin (Hospira) was used to induce lung fibrosis in mice. Body weight matched (24 gram˜28 gram) male C57BL/6J mice at 10-12 weeks of age were selected to use in bleomycin model.
(§1) For oral delivery, DPP4 inhibitors were dissolved in PBS resulting in clear solution. Vehicle control or DPP4 inhibitors were dosed at 10 ml/kg through oral gavage once or twice a day selected based on PK profile. For intratracheally delivered DPP4 inhibitors, compounds were dissolved in PBS resulting in clear solution. Vehicle control or DPP4 inhibitors were dosed at 2 ml/kg through a 22 g flexible catheter every four days.
0.5 U/kg Bleomycin or PBS in sham group was intratracheally injected into mice lung at day 0. DPP4 inhibitors or vehicle control were given to mice starting from one day before bleomycin injection (day −1).
All animals were sacrificed at day 20 after bleomycin injection. Bronchoalveolar lavage fluid (BALF) was retrieved using standard method. 1 ml 4% formalin was used to inflate the lung, which was subsequently fixed in 4% formalin for 24 hours and preserved in […] until histological process.
For readouts, body weight was measured every day; total protein content in BALF was quantified using BCA assay; pulmonary fibrosis was assessed using Masson's trichrome staining.

[3] = Pharmacokinetic profiling, plasma and lung levels after intratracheal or inhalation delivery in the mouse; format: in vivo; details: for Kp: read-out: AUC ratio; for AUC(0-t): read-out: AUC0-24; for MRT inf: read-out: MRT0-inf
AEC2s = assay: Single cell RNA-sequencing from the lungs of mice (proliferating cell types); format: in vivo; details: mouse lung, 0.5 mg/kg IT; for cell types proliferative in response to treatment: animals sacrificed 2 and 4 days after dosing (FIG. 5)
Method: Single cell RNA-sequencing from the lungs of mice was performed to understand which cell types are proliferative in response to compound 46 treatment.

[4] = system: LPS induced acute lung injury in mice; assay: LPS-induced acute lung injury (ALI) model; format: in vivo, C57BL/6J mice; details: mouse ALI model; every other day via intratracheal administration
Method: LPS from E. coli […] (Sigma) was used to induce acute lung injury in mice. Body weight matched (19 gram-22 gram) female C57BL/6J mice at 9-11 weeks of age were selected to use in ALI model.
as §1, with “other day.” for “four days.”
LPS (1.5 mg/kg for testing orally delivered DPP4 inhibitors and 1.2 mg/kg for testing intratracheally delivered DPP4 inhibitors) or PBS in sham group was intratracheally injection into mice lung at day 0. DPP4 inhibitors or vehicle control were given to mice starting from one day before LPS injection (day −1).
All animals were sacrificed at day 3.5 after LPS injection. Bronchoalveolar lavage fluid (BALF) was retrieved using standard method. 1 ml 4% formalin was used to inflate the lung, which was subsequently fixed in 4% formalin for 24 hours and preserved in 70% EtOH until histological process.
For readouts, total protein content in BALF was quantified using BCA assay; pulmonary inflammation and damage were assessed using H & E staining.

[5] = Mouse, Male, CD-1 strain, Intratracheal, 2 mg/kg, 1 mg/ml in PBS, Lung
[6] = Mouse, Male, CD-1 strain, Intratracheal, 2 mg/kg, 1 mg/ml in PBS, Plasma
[7] = inhaled or intranasal, Mouse, Male, CD-1 strain, Inhalation, 10 mg/ml in PBS for 15 mins, Lung
[8] = inhaled or intranasal, Mouse, Male, CD-1 strain, Inhalation, 10 mg/ml in PBS for 15 mins, Plasma
[9] = inhaled or intranasal, Mouse, Male, CD-1 strain, Intratracheal, 2 mg/kg, 1 mg/ml in PBS, Lung
[10] = inhaled or intranasal, Mouse, Male, CD-1 strain, Intratracheal, 2 mg/kg, 1 mg/ml in PBS, Plasma
[11] = mouse, IT dosing at 2 mg/kg (FIG. 2)

- IC50 (Human DPP4): 0.15 nM
- AUC0-24 ([1]; Lung): 658004 ng·h/g
- AUC0-inf ([1]; Lung): 4738852 ng·h/g
- AUC ratio ([1]; Plasma): 1
- Cmax ([1]; inhaled or intranasal, Lung): 41400 ng/g
- Tmax ([1]; inhaled or intranasal, Lung): 0.25 h
- half-life ([1]; inhaled or intranasal, Lung): 119 h
- Kp ([1]; inhaled or intranasal, Lung, read-out: AUC ratio): 145
- MRT inf ([1]; inhaled or intranasal, Lung): 186 h
- Cmax ([1]; inhaled or intranasal, Plasma): 14700 ng/mL
- Tmax ([1]; inhaled or intranasal, Plasma): 0.25 h
- half-life ([1]; inhaled or intranasal, Plasma): 68.8 h
- AUC(0-t) ([1]; inhaled or intranasal, Plasma, read-out: AUC0-24): 18000 ng·h/mL
- AUC0-inf ([1]; inhaled or intranasal, Plasma, read-out: AUC0-inf): 18600 ng·h/mL
- MRT inf ([1]; inhaled or intranasal, Plasma): 6 h
- AUC0-inf ([3]; Mouse, Male, CD-1 strain, Inhalation, 10 mg/ml in PBS for 15 mins, Lung): 509,951 ng · h/g
- AUC ratio ([3]; Mouse, Male, CD-1 strain, Inhalation, 10 mg/ml in PBS for 15 mins, Plasma): 1
- AUC0-24 [3, 5]: 258,902 ng · h/g
- AUC0-inf [3, 5]: 1,082,408 ng · h/g
- Tmax [3, 5]: 0.25 h
- Kp [3, 5]: 1350
- AUC ratio [3, 6]: 1
- AUC(0-t) [3, 6]: 728 ng·h/mL
- AUC0-inf ([3]; Mouse, Male, CD-1 strain, Intratracheal, 2 mg/kg, 1 mg/ml in PBS, Plasma, read-out: AUC0-inf): 729 ng·h/mL
- MRT inf [3, 6]: 1.88 h
- Cmax [3, 7]: 20900 ng/g
- Tmax [3, 7]: 0.25 h
- Kp [3, 7]: 9240
- Cmax [3, 8]: 35.9 ng/mL
- Tmax [3, 8]: 0.5 h
- half-life [3, 8]: 1.5 h
- AUC(0-t) [3, 8]: 53.4 ng·h/mL
- AUC0-inf ([3]; inhaled or intranasal, Mouse, Male, CD-1 strain, Inhalation, 10 mg/ml in PBS for 15 mins, Plasma, read-out: AUC0-inf): 55.2 ng·h/mL
- MRT inf [3, 8]: 1.69 h
- Cmax [3, 9]: 24600 ng/g
- half-life [3, 9]: 54.1 h
- MRT inf [3, 9]: 80.6 h
- Cmax [3, 10]: 435 ng/mL
- Tmax [3, 10]: 0.25 h
- half-life [3, 10]: 1.28 h
- time retained in the lung [3, 11]: 7 days
Compound: CCCCCCN(Cc1cn(CCOCCOCCOC(=O)c2nc(C(F)(F)F)n3c2CN(C(=O)C[C@H](N)Cc2cc(F)c(F)cc2F)CC3)nn1)C[C@H](O)[C@@H](O)[C@H](O)[C@H](O)CO [Compound 46, 2-(2-(2-(4-((hexyl(2,3,4,5,6-pentahydroxyhexyl)amino)methyl)-1H-1,2,3-triazol-1-yl)ethoxy)ethoxy)ethyl 7-((R)-3-amino-4-(2,4,5-trifluorophenyl)butanoyl)-3-(trifluoromethyl)-5,6,7,8-tetrahydroimidazo[1,5-a]pyrazine-1-carboxylate]
- efficacy in combination with Nintedanib ([2]; bleomycin model, listed as Compound 46, 0.5 mg/kg): synergistic efficacy
- efficacy in combination with Nintedanib ([2]; bleomycin model, listed as compound 46, 0.5 mg/kg): impressive and synergistic efficacy
- minimal efficacious dose ([2]; bleomycin model, every four-day intratracheal dosing regime): 0.5 mg/kg
- efficacy in the bleomycin induced pulmonary fibrosis model ([2]; mouse, intratracheally 0.5 mg/kg every four days, body weight, BALF protein, fibrotic area, modified Ashcroft scores (FIG. 3)): displayed efficacy; also recorded: rescue of key metrics including body weight, BALF protein content, fibrotic area, and histological scoring
- plasma and lung exposure profiles compared to retagliptin [3, 11]: significantly higher plasma and lung exposure profiles compared to retagliptin
- accumulation of AEC2s after treatment (AEC2s; 2 and 4 days after dosing): time-dependent accumulation of AEC2s
- cell types proliferative in response to treatment (AEC2s; listed as Compound 46, 0.5 mg/kg): selectively expanded AEC2s
- cell types proliferative in response to treatment (AEC2s; listed as compound 46, 0.5 mg/kg): only cycling and transitional AEC2s were induced to proliferate
- minimal efficacious dose [4]: 0.02 mg/kg
